Experimental data reported in ChEMBL document CHEMBL1909046, “DrugMatrix in vitro pharmacology data”.

How the values were obtained:
[1] = target: T1, 5-hydroxytryptamine receptor 2C (Homo sapiens, UniProt P28335); assay: DRUGMATRIX: Serotonin (5-Hydroxytryptamine) 5-HT2C radioligand binding (ligand: [3H] Mesulergine); format: cell membranes, CHO-K1, Membrane; settings: cho-k1; Not Active = under 50% inhibition at 10 µM
T1 sequence (P28335 whole entry): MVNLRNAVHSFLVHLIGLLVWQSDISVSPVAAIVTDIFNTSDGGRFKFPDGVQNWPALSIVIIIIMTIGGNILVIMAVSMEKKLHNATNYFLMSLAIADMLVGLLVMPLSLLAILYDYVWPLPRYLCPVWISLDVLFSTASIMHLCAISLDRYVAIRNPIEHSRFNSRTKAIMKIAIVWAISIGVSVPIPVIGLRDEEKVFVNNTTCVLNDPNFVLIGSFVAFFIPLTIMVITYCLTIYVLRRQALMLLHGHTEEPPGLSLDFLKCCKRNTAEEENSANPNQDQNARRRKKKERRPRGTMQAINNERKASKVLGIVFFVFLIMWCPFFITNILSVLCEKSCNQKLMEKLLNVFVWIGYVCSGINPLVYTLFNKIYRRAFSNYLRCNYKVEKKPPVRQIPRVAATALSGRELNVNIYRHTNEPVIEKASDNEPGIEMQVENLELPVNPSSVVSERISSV

Thromboxane-A synthase = target: T2, Thromboxane-A synthase (Homo sapiens, UniProt P24557); assay: biochemical; format: tissue-based, Platelet;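 further: enzyme inhibition assay with PGH2 supplied as substrate; in other assays of this panel Not Active means under 50% inhibition at 10 µM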
T2 sequence (P24557 whole entry): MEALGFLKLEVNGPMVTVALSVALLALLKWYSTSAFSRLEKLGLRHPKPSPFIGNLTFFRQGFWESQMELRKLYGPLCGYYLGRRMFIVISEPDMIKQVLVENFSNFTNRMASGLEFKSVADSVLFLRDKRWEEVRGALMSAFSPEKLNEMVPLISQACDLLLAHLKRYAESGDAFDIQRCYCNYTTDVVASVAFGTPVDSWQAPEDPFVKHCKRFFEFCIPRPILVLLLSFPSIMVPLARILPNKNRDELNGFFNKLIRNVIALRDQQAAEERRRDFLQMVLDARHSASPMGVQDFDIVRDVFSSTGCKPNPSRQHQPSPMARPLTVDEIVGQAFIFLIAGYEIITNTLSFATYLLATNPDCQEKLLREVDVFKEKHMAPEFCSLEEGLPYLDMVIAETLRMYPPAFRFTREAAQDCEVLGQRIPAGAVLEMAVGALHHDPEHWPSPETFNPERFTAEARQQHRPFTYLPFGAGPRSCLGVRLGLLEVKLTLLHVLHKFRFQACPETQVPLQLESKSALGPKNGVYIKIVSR

D(3) dopamine receptor = D(3) dopamine receptor (Homo sapiens, UniProt P35462); assay: DRUGMATRIX: Dopamine D3 radioligand binding (ligand: [3H] Spiperone); format: cell membranes, CHO, Membrane; settings: cho
D(3) dopamine receptor, sequence (P35462 whole entry): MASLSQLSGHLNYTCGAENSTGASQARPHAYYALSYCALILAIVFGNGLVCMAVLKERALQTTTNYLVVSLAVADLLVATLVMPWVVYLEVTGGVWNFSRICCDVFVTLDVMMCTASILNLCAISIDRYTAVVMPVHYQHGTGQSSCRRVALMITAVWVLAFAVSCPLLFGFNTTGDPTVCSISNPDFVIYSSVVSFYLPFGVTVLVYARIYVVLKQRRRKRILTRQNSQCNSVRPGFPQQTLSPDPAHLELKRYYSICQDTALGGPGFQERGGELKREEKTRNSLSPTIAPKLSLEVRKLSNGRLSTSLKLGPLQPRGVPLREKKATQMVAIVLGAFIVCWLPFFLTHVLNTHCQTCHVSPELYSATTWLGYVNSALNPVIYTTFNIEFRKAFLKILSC

[2] = DRUGMATRIX: Glutamate, NMDA, Agonism radioligand binding (ligand: [3H] CGP-39653); format: cell membranes, Rattus norvegicus, Wistar, Cerebral cortex, Membrane; settings: Not Active = under 50% inhibition at 10 µM
[3] = DRUGMATRIX: Glutamate, AMPA radioligand binding (ligand: [3H] AMPA); format: cell membranes, Rattus norvegicus, Wistar, Cerebral cortex, Membrane; settings: Not Active = under 50% inhibition at 10 µM
[4] = target: T3, Neuropeptide Y receptor type 1 (Homo sapiens, UniProt P25929); format: cell membranes, Membrane; settings: sk-n-mc; further: in other assays of this panel Not Active means under 50% inhibition at 10 µM
T3 sequence (P25929 whole entry): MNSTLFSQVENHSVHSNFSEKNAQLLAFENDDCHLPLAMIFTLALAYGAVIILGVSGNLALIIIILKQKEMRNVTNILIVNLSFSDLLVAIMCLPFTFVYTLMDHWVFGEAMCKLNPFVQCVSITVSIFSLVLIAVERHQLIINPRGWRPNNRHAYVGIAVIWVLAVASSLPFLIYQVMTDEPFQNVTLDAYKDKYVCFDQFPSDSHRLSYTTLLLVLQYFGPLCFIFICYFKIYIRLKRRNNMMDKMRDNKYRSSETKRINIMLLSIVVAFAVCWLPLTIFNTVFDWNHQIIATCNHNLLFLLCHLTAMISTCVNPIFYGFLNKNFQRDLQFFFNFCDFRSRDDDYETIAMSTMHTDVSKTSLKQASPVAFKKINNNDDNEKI

Compound | IC50 [1] | IC50 (Thromboxane-A synthase; platelet) | IC50 (D(3) dopamine receptor) | IC50 [2] | Ki [2] | IC50 [3] | Ki [3] | IC50 [4] | IC50 (Thromboxane-A synthase; read-out: IC50) | Ki [1] | Ki (Thromboxane-A synthase; platelet) | Ki (D(3) dopamine receptor) | Ki [4]
Cc1cccc(N(C)C(=S)Oc2ccc3ccccc3c2)c1 [TOLNAFTATE] | Not Active | Not Active | Not Active | Not Active | Not Active | Not Active | Not Active | Not Active |  |  |  |  | 
NC[C@H]1CC[C@H](C(=O)O)CC1 [TRANEXAMIC ACID] | Not Active | Not Active | Not Active | Not Active | Not Active | Not Active | Not Active | Not Active |  |  |  |  | 
CC1(C)O[C@@H]2C[C@H]3[C@@H]4CCC5=CC(=O)C=C[C@]5(C)[C@@]4(F)[C@@H](O)C[C@]3(C)[C@]2(C(=O)CO)O1 [TRIAMCINOLONE ACETONIDE] | Not Active | Not Active | Not Active | Not Active | Not Active | Not Active | Not Active | Not Active |  |  |  |  | 
NS(=O)(=O)c1cc2c(cc1Cl)NC(C(Cl)Cl)NS2(=O)=O (centres undefined) [TRICHLORMETHIAZIDE] | Not Active | Not Active | Not Active | Not Active | Not Active | Not Active | Not Active | Not Active |  |  |  |  | 
Cc1c(C)c2c(c(C)c1O)CCC(C)(COc1ccc(CC3SC(=O)NC3=O)cc1)O2 (centres undefined) [TROGLITAZONE] | Not Active |  | Not Active | Not Active | Not Active | Not Active | Not Active | Not Active | 2.97 µM |  |  |  | 
N[C@@H]1[C@H]2CN(c3nc4c(cc3F)c(=O)c(C(=O)O)cn4-c3ccc(F)cc3F)C[C@@H]12 [TROVAFLOXACIN] | Not Active |  | Not Active | Not Active | Not Active | Not Active | Not Active | Not Active | 4.02 µM |  |  |  | 
N#CC(C#N)=Cc1ccc(O)c(O)c1 [TYRPHOSTIN 23] | Not Active | Not Active | Not Active | Not Active | Not Active | Not Active | Not Active | Not Active |  |  |  |  | 
CC[C@]1(O)C[C@H]2CN(CCc3c([nH]c4ccccc34)[C@@](C(=O)OC)(c3cc4c(cc3OC)N(C=O)[C@H]3[C@@](O)(C(=O)OC)[C@H](OC(C)=O)[C@]5(CC)C=CCN6CC[C@]43[C@@H]65)C2)C1 [VINCRISTINE] | Not Active | Not Active | Not Active | Not Active | Not Active | Not Active | Not Active | Not Active |  |  |  |  | 
CCCOc1ccccc1-c1nc2nn[nH]c2c(=O)[nH]1 [ZAPRINAST] | Not Active | Not Active | Not Active | Not Active | Not Active | Not Active | Not Active | Not Active |  |  |  |  | 
SODIUM NITROPRUSSIDE | Not Active | Not Active | Not Active | Not Active | Not Active | Not Active | Not Active | Not Active |  | Not Active | Not Active | Not Active | Not Active
